What all share (type): cell-based
Assay [1] relates to human colon cancer cells HCT116. Briefly: MTT in vitro cell proliferation inhibition experiment, HCT116. Particulars: Homo sapiens, HCT-116, MTT method, 48 h contact between compound and cell, read-out: Antiproliferative activity (IC50, μM) HCT116. On the procedure: (§1) Human liver tumor cells HepG2, human colon cancer cells HCT116, and human gastric adenocarcinoma cells AGS were purchased from the Institute of Basic Medical Sciences, Chinese Academy of Medical Sciences. The cells each were preserved and passaged in the laboratory of the present disclosure according to respective cultivation data. Each cell line was routinely inoculated in a 50 mL cell culture flask, and cultivated with a 10% fetal bovine serum-containing DMEM/IRP-1640 medium at 37° C., 5% CO2, and 100% humidity, where the medium was changed daily. When growing to a confluency of 80% to 90%, cells were digested with a mixture of trypsin and EDTA and passaged according to 1:3.
(§2) An in vitro cell activity and proliferation inhibition experiment was conducted by an MTT method to investigate an impact of a target compound on a survival activity of each cell. Cells at a logarithmic growth phase were inoculated at 5×10^3 cells (100 μL)/well in a 96-well culture plate and cultivated for 24 h, and then compound solutions with different concentrations prepared in advance were added (100 μL) to the plate. At least 3 replicate wells were set for each concentration. A solvent control group without a compound and a blank control group without a cell were set. Edge wells each were filled with 200 μL of sterilized water. […] A liquid in each well was completely removed carefully, 150 μL of DMSO was added to each well, the plate was gently shaken on a microshaker for 10 min to make a purple crystal fully dissolved, and then an absorbance value was determined at 570 nm by a microplate reader. With a cell viability of the solvent control group without a compound as 100%, a cell survival rate was calculated as follows: a cell survival rate=(an absorbance value of a compound group−an absorbance value of the blank control group)/(an absorbance value of the control group−an absorbance value of the blank control group)×100%. A half-maximal inhibitory concentration (IC50) of a compound for a cell was calculated by the Graphpad Prism 5 software.

Assay [2] deals with Human liver tumor cells HepG2. Briefly: MTT in vitro cell proliferation inhibition experiment, HepG2. The conditions noted are these: Homo sapiens, MTT method, 48 h contact between compound and cell, read-out: Antiproliferative activity (IC50, μM) HepG2. On the procedure:
as §1, §2
(In general: Formazan colour is commonly taken as a measure of viable cells.)

The test system of assay [3] is human gastric adenocarcinoma cells AGS. Briefly: MTT in vitro cell proliferation inhibition experiment, AGS. The conditions noted are these: Homo sapiens, MTT method, 48 h contact between compound and cell, read-out: Antiproliferative activity (IC50, μM) AGS. The protocol: as §1, §2

Bounds are passed on as bounds.

For the compound `CCOc1ccc(C2C(C(C)CC)NC3(C(=O)c4ccccc4C3=O)C2C(=O)c2nc3ccccc3[nH]2)cc1` (stereo not drawn) [Compound 23, 3-(1H-benzimidazol-2-carbonyl)-5-sec-butyl-4-(4-ethoxyphenyl)spiro[inden-2,2′-pyrrolidine]-1,3-dione], the half-inhibitory concentration (IC50) in assay [1] was determined as 9.67 µM; in assay [2] it was 8.78 µM; in assay [3], 45.8 µM.

Regarding `CCC(C)C1NC2(C(=O)c3ccccc3C2=O)C(C(=O)c2nc3ccccc3[nH]2)C1c1ccc(Br)cc1` (stereo not drawn) [Compound 24, 3-(1H-benzimidazol-2-carbonyl)-4-(4-bromophenyl)-5-sec-butylspiro[inden-2,2′-pyrrolidine]-1,3-dione], the figures for the IC50 in assay [1], in assay [2] and in assay [3] were 45.8 µM, 67.8 µM and 3.67 µM, respectively.

With `CC(C)C1NC2(C(=O)c3ccccc3C2=O)C(C(=O)c2nc3ccccc3[nH]2)C1C1CCCCC1` (stereo not drawn) [Compound 25, 3-(1H-benzimidazol-2-carbonyl)-4-cyclohexyl-5-isopropylspiro[inden-2,2′-pyrrolidine]-1,3-dione], the IC50 is 5.67 µM in assay [1], 9.67 µM in assay [2] and 12.4 µM in assay [3].

Consider `CC(C)C1NC2(C(=O)c3ccccc3C2=O)C(C(=O)c2nc3ccccc3[nH]2)C1c1ccc(Cl)c(F)c1` (stereo not drawn) [Compound 26, 3-(1H-benzimidazol-2-carbonyl)-4-(3-fluoro-4-chlorophenyl)-5-isopropylspiro[inden-2,2′-pyrrolidine]-1,3-dione], for which the IC50 in assay [1] was 79 µM; in assay [2], > 100 µM; in assay [3] it was 60 µM.

Take `CC(C)C1NC2(C(=O)c3ccccc3C2=O)C(C(=O)c2nc3ccccc3[nH]2)C1c1ccc(Cl)cc1` (stereo not drawn) [Compound 27, 3-(1H-benzimidazol-2-carbonyl)-4-(4-chlorophenyl)-5-isopropylspiro[inden-2,2′-pyrrolidine]-1,3-dione]: the values for the IC50 in assay [1], in assay [2] and in assay [3] were > 100 µM, > 100 µM and 90.1 µM, respectively.

With `Cc1ccc(C2C(C(C)C)NC3(C(=O)c4ccccc4C3=O)C2C(=O)c2nc3ccccc3[nH]2)cc1` (stereo not drawn) [Compound 28, 3-(1H-benzimidazol-2-carbonyl)-5-isopropyl-4-p-tolylspiro[inden-2,2′-pyrrolidine]-1,3-dione], the half-maximal inhibitory concentration (IC50) amounted to 4.56 µM in assay [1], 3.45 µM in assay [2] and 2.98 µM in assay [3].

For `CCOc1ccc(C2C(C(C)C)NC3(C(=O)c4ccccc4C3=O)C2C(=O)c2nc3ccccc3[nH]2)cc1OCC` (stereo not drawn) [Compound 29, 3-(1H-benzimidazol-2-carbonyl)-3,4-diethoxyphenyl-5-isopropylspiro[inden-2,2′-pyrrolidine]-1,3-dione], the values for the concentration for half-maximal inhibition (IC50) in assay [1], in assay [2] and in assay [3] were 53.2 µM, 44.6 µM and 67.1 µM, respectively.

Regarding `CC(C)C1NC2(C(=O)c3ccccc3C2=O)C(C(=O)c2nc3ccccc3[nH]2)C1c1cccc(Br)c1` (stereo not drawn) [Compound 30, 3-(1H-benzimidazol-2-carbonyl)-4-(3-bromophenyl)-5-isopropylspiro[inden-2,2′-pyrrolidine]-1,3-dione], the half-inhibitory concentration (IC50) came out at 3.42 µM in assay [1], 2.34 µM in assay [2] and 2.98 µM in assay [3].

Turning to `CCOc1ccc(C2C(C(C)C)NC3(C(=O)c4ccccc4C3=O)C2C(=O)c2nc3ccccc3[nH]2)cc1` (stereo not drawn) [Compound 31, 3-(1H-benzimidazol-2-carbonyl)-4-(4-ethoxyphenyl)-5-isopropylspiro[inden-2,2′-pyrrolidine]-1,3-dione], the IC50 in assay [1] was determined as 56.4 µM; in assay [2] it was 44.6 µM; in assay [3], 59.9 µM.

As to `CC(C)C1NC2(C(=O)c3ccccc3C2=O)C(C(=O)c2nc3ccccc3[nH]2)C1c1ccc(Br)cc1` (stereo not drawn) [Compound 32, 3-(1H-benzimidazol-2-carbonyl)-4-(4-bromophenyl)-5-isopropylspiro[inden-2,2′-pyrrolidine]-1,3-dione], the IC50 in assay [1] was > 100 µM; in assay [2], 66.7 µM; in assay [3], > 100 µM.

For the compound `CSCCC1NC2(C(=O)c3ccccc3C2=O)C(C(=O)c2nc3ccccc3[nH]2)C1C1CCCCC1` (stereo not drawn) [Compound 33, 3-(1H-benzimidazol-2-carbonyl)-4-cyclohexyl-5-(methylthio)ethylspiro[inden-2,2′-pyrrolidine]-1,3-dione], the half-maximal inhibitory concentration (IC50) stood at 15.5 µM in assay [1], 12.5 µM in assay [2] and 9.77 µM in assay [3].

Turning to `CSCCC1NC2(C(=O)c3ccccc3C2=O)C(C(=O)c2nc3ccccc3[nH]2)C1c1ccc(Cl)c(F)c1` (stereo not drawn) [Compound 34, 3-(1H-benzimidazol-2-carbonyl)-4-(4-chloro-3-fluorophenyl)-5-(2-methylthio)ethylspiro[inden-2,2′-pyrrolidine]-1,3-dione], the IC50 was 44.7 µM in assay [1], 36.6 µM in assay [2] and 39.7 µM in assay [3].

As for `CSCCC1NC2(C(=O)c3ccccc3C2=O)C(C(=O)c2nc3ccccc3[nH]2)C1c1ccc(Cl)cc1` (stereo not drawn) [Compound 35, 3-(1H-benzimidazol-2-carbonyl)-4-(4-chlorophenyl)-5-(2-methylthio)ethylspiro[inden-2,2′-pyrrolidine]-1,3-dione], the figures for the IC50 in assay [1], in assay [2] and in assay [3] were 42.7 µM, 40.5 µM and 45.8 µM, respectively.

For `CSCCC1NC2(C(=O)c3ccccc3C2=O)C(C(=O)c2nc3ccccc3[nH]2)C1c1ccc(C)cc1` (stereo not drawn) [Compound 36, 3-(1H-benzimidazol-2-carbonyl)-5-(2-methylthio)ethyl-4-p-tolylspiro[inden-2,2′-pyrrolidine]-1,3-dione], the IC50 in assay [1] amounted to 15.5 µM; in assay [2], 13.5 µM; in assay [3], 9.78 µM.

Regarding `CCOc1ccc(C2C(CCSC)NC3(C(=O)c4ccccc4C3=O)C2C(=O)c2nc3ccccc3[nH]2)cc1OCC` (stereo not drawn) [Compound 37, 3-(1H-benzimidazol-2-carbonyl)-3,4-diethoxyphenyl-5-(2-methylthio)ethylspiro[inden-2,2′-pyrrolidine]-1,3-dione], the half-inhibitory concentration (IC50) in assay [1] is > 100 µM; in assay [2], > 100 µM; in assay [3], 78.6 µM.

For `CSCCC1NC2(C(=O)c3ccccc3C2=O)C(C(=O)c2nc3ccccc3[nH]2)C1c1cccc(Br)c1` (stereo not drawn) [Compound 38, 3-(1H-benzimidazol-2-carbonyl)-4-(3-bromophenyl)-5-(2-methylthio)ethylspiro[inden-2,2′-pyrrolidine]-1,3-dione], the 50% inhibitory concentration (IC50) came out at 47.4 µM in assay [1], 49.8 µM in assay [2] and 40.9 µM in assay [3].

For `CCOc1ccc(C2C(CCSC)NC3(C(=O)c4ccccc4C3=O)C2C(=O)c2nc3ccccc3[nH]2)cc1` (stereo not drawn) [Compound 39, 3-(1H-benzimidazol-2-carbonyl)-4-(4-ethoxyphenyl)-5-(2-methylthio)ethylspiro[inden-2,2′-pyrrolidine]-1,3-dione], the IC50 in assay [1], in assay [2] and in assay [3] was > 100 µM each time.

Take `CSCCC1NC2(C(=O)c3ccccc3C2=O)C(C(=O)c2nc3ccccc3[nH]2)C1c1ccc(Br)cc1` (stereo not drawn) [Compound 40, 3-(1H-benzimidazol-2-carbonyl)-4-(4-bromophenyl)-5-(2-methylthio)ethylspiro[inden-2,2′-pyrrolidine]-1,3-dione]: the IC50 in assay [1] was determined as 56.7 µM; in assay [2], 9.56 µM; in assay [3], 66.2 µM.

For the compound `O=C(c1nc2ccccc2[nH]1)C1C(C2CCCCC2)C(c2c[nH]c3ccccc23)NC12C(=O)c1ccccc1C2=O` (stereo not drawn) [Compound 41, 3-(1H-benzimidazol-2-carbonyl)-4-cyclohexyl-5-(1H-indol-3-yl)spiro[inden-2,2′-pyrrolidine]-1,3-dione], the concentration for half-maximal inhibition (IC50) in assay [1] came to 77.4 µM; in assay [2], 89.6 µM; in assay [3], 82.3 µM.

Take `O=C(c1nc2ccccc2[nH]1)C1C(c2ccc(Cl)c(F)c2)C(c2c[nH]c3ccccc23)NC12C(=O)c1ccccc1C2=O` (stereo not drawn) [Compound 42, 3-(1H-benzimidazol-2-carbonyl)-4-(4-chloro-3-fluorophenyl)-5-(1H-indol-3-yl)spiro[inden-2,2′-pyrrolidine]-1,3-dione]: the IC50 came to 4.78 µM in assay [1], 3.45 µM in assay [2] and 3.01 µM in assay [3].

As for `O=C(c1nc2ccccc2[nH]1)C1C(c2ccc(Cl)cc2)C(c2c[nH]c3ccccc23)NC12C(=O)c1ccccc1C2=O` (stereo not drawn) [Compound 43, 3-(1H-benzimidazol-2-carbonyl)-4-(4-chlorophenyl)-5-(1H-indol-3-yl)spiro[inden-2,2′-pyrrolidine]-1,3-dione], the IC50 in assay [1] is 55.5 µM; in assay [2], 34.6 µM; in assay [3] it was 39.7 µM.

For orientation: IC50 means the point on the concentration scale where inhibition reaches its midpoint.
